From article PMC1525162 (BMC Pharmacology, 2006)
Entries after “also recorded” stand apart in the source; their conditions may differ. Each block holds one molecule with its values, some of them ahead of it. Bridge positions count the residues as written; N and C are the ends. Ends that are not written are not given here. Peptide text beside a SMILES is read from it.

Legend:
CGRP receptor = details: displaced by CGRP and CGRP(8–37); cited from earlier work
Excerpt: (§1) Consequently, it is reasonable to assume that interactions of CGRP-F37 with the mature CLR-RAMP1 heterodimer would necessitate a more complex relationship in order to account for the high affinity binding associated with ...

[1] = system: endogenous CGRP receptor expressed on SK-N-MC human neuroblastoma cells; details: cited from earlier work
Excerpt: as §1

[2] = biological target: T1, wild type CLR-RAMP1 heterodimer (HEK293T-RAMP1 membranes) (Homo sapiens, UniProt O60894+Q16602); assay: Competition radioligand binding, wild type CLR; details: compared to Ki of CGRP
Experimental: (§2) A crude cell membrane preparation was prepared as previously described. Briefly, HEK293T-RAMP1 membranes were prepared by scraping and transferring cells to a 50 mL conical tube using cold HBSS followed with two washings by centrifugation at 1000 × g using cold HBSS. The intact cell pellet was resuspended in 10 mL of 0.25 M sucrose containing a protease inhibitor cocktail consisting of 10μg/mL benzamidine, 10μg/mL leupeptin, and 20μg/mL phenylmethysulfonylfluoride. The cells were disrupted by freezing followed by Dounce homogenization of the thawed suspension using 20 strokes from a loose fitting (B) pestle. This mixture was then centrifuged at 1260 × g for 5 min at 4°C. Buffer A (20 mM HEPES, pH 7.5, 1.4 mM EGTA, 12.5 mM MgCl2, 10μg/mL benzamidine, 10μg/mL leupeptin, and 20μg/mL phenylmethysulfonylfluoride) was added to the supernatant and centrifuged again at 30,000 × g for 15 min at 4°C. The resultant pellet was kept, resuspended in buffer A then centrifuged once more at 30,000 × g for 15 min at 4°C. […] Protein concentrations were measured using the method of Bradford.
(§3) The radioligand binding protocol used for this study was performed as previously described. […] Amounts of total and non-specific radiolabel bound to cell membranes were calculated from radioactive counts remaining on the glass fiber filters.

[3] = biological target: wild type CLR-RAMP1 (transiently transfected HEK293T-RAMP1 cells) (Homo sapiens, UniProt O60894+Q16602); assay: cAMP generation, wild type CLR; format: cell-based
[4] = system: L24A, L34A and L24A,L34A CLR-RAMP1 heterodimers versus wild type; assay: Competition/saturation binding, leucine mutant CLRs compared with wild type; parameters: species or system human; details: for affinity at leucine mutants compared with wild type: L34A, L24A,L34A vs wild type CLR
Experimental: A crude cell membrane preparation was prepared as previously described. Briefly, HEK293T-RAMP1 membranes were prepared by scraping and transferring cells to a 50 mL conical tube using cold HBSS followed with two washings by centrifugation at 1000 × g using cold HBSS. The intact cell pellet was resuspended in 10 mL of 0.25 M sucrose containing a protease inhibitor cocktail consisting of 10μg/mL benzamidine, 10μg/mL leupeptin, and 20μg/mL phenylmethysulfonylfluoride. The cells were disrupted by freezing followed by Dounce homogenization of the thawed suspension using 20 strokes from a loose fitting (B) pestle. This mixture was then centrifuged at 1260 × g for 5 min at 4°C. Buffer A (20 mM HEPES, pH 7.5, 1.4 mM EGTA, 12.5 mM MgCl2, 10μg/mL benzamidine, 10μg/mL leupeptin, and 20μg/mL phenylmethysulfonylfluoride) was added to the supernatant and centrifuged again at 30,000 × g for 15 min at 4°C. The resultant pellet was kept, resuspended in buffer A then centrifuged once more at 30,000 × g for 15 min at 4°C. The final crude membrane pellet was resuspended in buffer A containing 10% glycerol and stored in aliquots at -70°C until used for radioligand binding. Protein concentrations were measured using the method of Bradford.
The radioligand binding protocol used for this study was performed as previously described. […] Binding was stopped by filtering the membranes though Whatman GF/C glass fiber filters, followed by 5 – 5 mL washes with cold buffer B (20 mM HEPES, pH 7.5, 1.4 mM EGTA, 12.5 mM MgCl2) to remove any unbound drug. Amounts of total and non-specific radiolabel bound to cell membranes were calculated from radioactive counts remaining on the glass fiber filters.

[5] = system: endogenous CGRP receptors on acutely isolated pancreatic acinar cells; parameters: method as in PMID 7689110; details: cited from earlier work
[6] = system: wild type and L24A, L34A, L24A,L34A CLR-RAMP1 (HEK293T-RAMP1 cells); assay: cAMP generation, wild type and leucine mutant CLRs compared; details: L24A, L34A, L24A,L34A vs wild type CLR
[7] = biological target: T1, wild type CLR-RAMP1 heterodimer (HEK293T-RAMP1 membranes); assay: Saturation binding of [^125I-Tyr]CGRP(8–37), wild type CLR; details: per mg wild type membrane protein; mean ± S.E., n = 3 in duplicate
Experimental: as §2, §3

[8] = system: HEK293T-RAMP1 membranes without CLR; assay: Radioligand binding, non-transfected or empty-vector HEK293T-RAMP1 membranes; details: increasing radioligand concentrations, data not shown
Experimental: as §2, §3

[9] = biological target: CGRP receptors endogenously expressed in rat brain and peripheral tissues; parameters: method as in Van Rossum et al., 1994; details: previously published equilibrium dissociation constant; ref Van Rossum et al., 1994; read-out: Reported Wild Type, Kd of radioligand; cited from earlier work
[10] = biological target: endogenous CGRP receptors expressed in the guinea pig atria; parameters: method as in Rovero et al., 1992; details: estimated from functional characterization, n = 3, ref Rovero et al., 1992, read-out: Reported Wild Type, equilibrium dissociation constant; cited from earlier work
[11] = biological target: CLR-RAMP1 heterodimer with the L24A CLR mutant (UniProt Q16602); assay: radioligand binding; competition: increasing unlabeled peptide against specific [125I-Tyr]CGRP(8–37) binding on crude membranes of transiently transfected HEK293T-RAMP1 cells, same buffer as the saturation binding; Ki from IC50 by the method of Cheng and Prusoff
[12] = biological target: CLR-RAMP1 heterodimer with the L24A,L34A CLR double mutant (UniProt Q16602); assay: as above
[13] = biological target: CLR-RAMP1 heterodimer with the L34A CLR mutant (UniProt Q16602); assay: as above
[14] = biological target: CLR-RAMP1 heterodimer, wild type calcitonin-like receptor (CLR) with receptor-activity-modifying protein-1 (RAMP1) (UniProt Q16602); assay: as above
[15] = biological target: T2, CLR-RAMP1 heterodimer, wild type calcitonin-like receptor (CLR) with receptor-activity-modifying protein-1 … (human | , UniProt Q16602 23-461; O60894 27-148); assay: cell-based or functional assay
[16] = biological target: T3, CLR-RAMP1 heterodimer with the L24A CLR mutant (human | , UniProt Q16602 23-461; O60894 27-148, L24A); assay: cell-based or functional assay
[17] = biological target: T4, CLR-RAMP1 heterodimer with the L34A CLR mutant (human | , UniProt Q16602 23-461; O60894 27-148, L34A); assay: cell-based or functional assay
[18] = biological target: T5, CLR-RAMP1 heterodimer with the L24A,L34A CLR double mutant (human | , UniProt Q16602 23-461; O60894 27-148, L24A | L34A); assay: cell-based or functional assay
[19] = biological target: T2, CLR-RAMP1 heterodimer, wild type …; assay: radioligand binding; competition: increasing unlabeled peptide against specific [125I-Tyr]CGRP(8–37) binding on crude membranes of transiently transfected HEK293T-RAMP1 cells, same buffer as the saturation binding; Ki from IC50 by the method of Cheng and Prusoff
[20] = biological target: T3, CLR-RAMP1 heterodimer with the L24A CLR …; assay: as above
[21] = biological target: T4, CLR-RAMP1 heterodimer with the L34A CLR …; assay: as above
[22] = biological target: T5, CLR-RAMP1 heterodimer with the …; assay: as above

Molecule: NCCCC[C@H](NC(=O)[C@@H](Cc1cc(Br)c(O)c(Br)c1)NC(=O)N1CCC(N2Cc3ccccc3NC2=O)CC1)C(=O)N1CCN(c2ccncc2)CC1 [BIBN4096BS]
- displacement in competition binding (CGRP receptor): selectively be displaced in competition binding assays by CGRP and the receptor antagonist, CGRP(8–37)
- affinity for endogenous CGRP receptor [1]: high affinity

Molecule: CC(C)C[C@H](NC(=O)CNC(=O)[C@H](C)NC(=O)[C@H](CC(C)C)NC(=O)[C@H](CCCNC(=N)N)NC(=O)[C@H](Cc1c[nH]cn1)NC(=O)[C@@H](NC(=O)[C@@H](NC(=O)[C@@H]1CSSC[C@H](NC(=O)[C@H](C)N)C(=O)N[C@@H](CC(=O)O)C(=O)N[C@@H]([C@@H](C)O)C(=O)N[C@@H](C)C(=O)N[C@@H]([C@@H](C)O)C(=O)N1)C(C)C)[C@@H](C)O)C(=O)N[C@@H](CC(C)C)C(=O)N[C@@H](CO)C(=O)N[C@@H](CCCNC(=N)N)C(=O)N[C@@H](CO)C(=O)NCC(=O)NCC(=O)N[C@H](C(=O)N[C@H](C(=O)N[C@@H](CCCCN)C(=O)N[C@@H](CC(N)=O)C(=O)N[C@@H](CC(N)=O)C(=O)N[C@@H](Cc1ccccc1)C(=O)N[C@H](C(=O)N1CCC[C@H]1C(=O)N[C@H](C(=O)N[C@@H](CC(N)=O)C(=O)N[C@H](C(=O)NCC(=O)N[C@@H](CO)C(=O)N[C@@H](CCCCN)C(=O)N[C@@H](C)C(N)=O)C(C)C)[C@@H](C)O)C(C)C)C(C)C)C(C)C [CGRP(1–36)] (H-ACDTATCVTHRLAGLLSRSGGVVKNNFVPTNVGSKA-NH2; disulfide 2-7 (inferred); N-terminus assumed)
- affinity for wild type CLR compared with CGRP [2]: significant affinity loss
- maximal cAMP response ([3]; CGRP(1–36) compared with CGRP, CGRP(1–19) compared with CGRP(1–36) and CGRP): maximal response was similar
- fold loss of EC50 potency vs CGRP, wild type ([3]; cAMP EC50 of the fragment compared with CGRP): over 2,600 fold
- cAMP potency compared with CGRP, wild type ([3]; compared to CGRP): significantly less
- affinity at leucine mutants compared with wild type [4]: no differences
- amylase release [5]: increase amylase release
- cAMP potency at leucine mutants compared with wild type [6]: no different; also recorded: no significant potency differences

Molecule: Ac-SGGVVKNNFVPTNVGSKAF-NH2 [AcCGRP(19–37)]
- affinity at leucine mutants compared with wild type [4]: significantly different (P < .05) from the wild type receptor
- Kd [10]: 0.933 µM

Second part, led by results:

- Bmax (maximal specific binding) [7]: 285 ± 206 fmols/mg
- fold decrease in affinity, mutant receptors vs wild type ([4]; L34A and L24A,L34A compared to wild type CLR): ~10 fold
- specific binding without CLR [8]: no specific binding
Molecule: CC(C)C[C@H](NC(=O)CNC(=O)[C@H](C)NC(=O)[C@H](CC(C)C)NC(=O)[C@H](CCCNC(=N)N)NC(=O)[C@H](Cc1c[nH]cn1)NC(=O)[C@@H](NC(=O)[C@@H](NC(=O)[C@@H](N)Cc1ccc(O)c(I)c1)C(C)C)[C@@H](C)O)C(=O)N[C@@H](CC(C)C)C(=O)N[C@@H](CO)C(=O)N[C@@H](CCCNC(=N)N)C(=O)N[C@@H](CO)C(=O)NCC(=O)NCC(=O)N[C@H](C(=O)N[C@H](C(=O)N[C@@H](CCCCN)C(=O)N[C@@H](CC(N)=O)C(=O)N[C@@H](CC(N)=O)C(=O)N[C@@H](Cc1ccccc1)C(=O)N[C@H](C(=O)N1CCC[C@H]1C(=O)N[C@H](C(=O)N[C@@H](CC(N)=O)C(=O)N[C@H](C(=O)NCC(=O)N[C@@H](CO)C(=O)N[C@@H](CCCCN)C(=O)N[C@@H](C)C(=O)N[C@@H](Cc1ccccc1)C(N)=O)C(C)C)[C@@H](C)O)C(C)C)C(C)C)C(C)C [[^125I-Tyr]CGRP(8–37)]
- Kd [9]: 0.0002 µM

- Ki [11]: 3 µM
- Ki [12]: 2 µM
- Ki [13]: 4.6 µM
- Ki [14]: 0.227 µM
Molecule: AcCGRP(19–37) (peptide)

- EC50 of cAMP generation in transiently transfected HEK293T-RAMP1 cells [15]: 4.3 µM
- EC50 of cAMP generation in transiently transfected HEK293T-RAMP1 cells [16]: 3.4 µM
- EC50 of cAMP generation in transiently transfected HEK293T-RAMP1 cells [17]: 5.6 µM
- EC50 of cAMP generation in transiently transfected HEK293T-RAMP1 cells [18]: 4.2 µM
- Ki [19]: > 10 µM
- Ki [20]: > 10 µM
- Ki [21]: > 10 µM
- Ki [22]: > 10 µM
B1: CGRP(1–36) (peptide)
chain: ACDTATCVTHRLAGLLSRSGGVVKNNFVPTNVGSKA-NH2
modifications: not fully specified (bridges); cysteine pairing not given here
